Data set [1] has as its target T1, CYP26A1 (Homo sapiens, UniProt O43174).
T1 sequence (O43174 1-497): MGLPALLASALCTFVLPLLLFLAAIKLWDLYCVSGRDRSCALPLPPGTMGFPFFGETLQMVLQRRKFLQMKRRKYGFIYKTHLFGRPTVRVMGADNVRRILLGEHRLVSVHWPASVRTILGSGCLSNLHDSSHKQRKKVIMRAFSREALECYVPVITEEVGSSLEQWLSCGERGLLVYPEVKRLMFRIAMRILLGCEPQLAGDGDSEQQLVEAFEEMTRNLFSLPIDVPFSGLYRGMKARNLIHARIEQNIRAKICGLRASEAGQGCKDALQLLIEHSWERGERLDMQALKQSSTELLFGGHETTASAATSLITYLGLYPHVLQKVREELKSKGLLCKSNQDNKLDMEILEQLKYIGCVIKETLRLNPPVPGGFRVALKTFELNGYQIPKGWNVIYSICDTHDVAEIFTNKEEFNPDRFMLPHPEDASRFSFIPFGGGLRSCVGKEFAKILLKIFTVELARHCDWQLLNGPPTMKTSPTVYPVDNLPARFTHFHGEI
As to the kind of experiment: Inhibition of CYP26A1-catalyzed tazarotenic acid sulfoxide formation. Format: biochemical.

Data set [2] deals with T2, CYP2C8 (Homo sapiens, UniProt P10632).
T2 sequence (P10632 1-490): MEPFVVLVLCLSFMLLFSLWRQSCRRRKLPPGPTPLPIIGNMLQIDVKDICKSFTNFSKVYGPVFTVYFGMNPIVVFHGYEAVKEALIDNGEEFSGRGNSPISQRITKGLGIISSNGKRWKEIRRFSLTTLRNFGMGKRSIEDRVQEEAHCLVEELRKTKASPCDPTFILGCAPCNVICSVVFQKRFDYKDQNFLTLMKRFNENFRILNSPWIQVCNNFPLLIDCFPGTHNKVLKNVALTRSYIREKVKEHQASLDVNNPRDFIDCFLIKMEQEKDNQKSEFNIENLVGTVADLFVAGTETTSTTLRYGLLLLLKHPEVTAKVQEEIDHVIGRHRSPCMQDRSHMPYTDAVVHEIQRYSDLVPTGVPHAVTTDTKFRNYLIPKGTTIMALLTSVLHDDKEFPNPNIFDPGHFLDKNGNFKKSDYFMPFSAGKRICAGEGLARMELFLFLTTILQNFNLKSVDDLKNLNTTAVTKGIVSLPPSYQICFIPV
The settings on record: read-out: CYP2C8 IC50; substrate amodiaquine; ref [51]; cited from earlier work.

Data set [3] has as its target T3, CYP26B1 (Homo sapiens, UniProt Q9NR63).
T3 sequence (Q9NR63 1-512): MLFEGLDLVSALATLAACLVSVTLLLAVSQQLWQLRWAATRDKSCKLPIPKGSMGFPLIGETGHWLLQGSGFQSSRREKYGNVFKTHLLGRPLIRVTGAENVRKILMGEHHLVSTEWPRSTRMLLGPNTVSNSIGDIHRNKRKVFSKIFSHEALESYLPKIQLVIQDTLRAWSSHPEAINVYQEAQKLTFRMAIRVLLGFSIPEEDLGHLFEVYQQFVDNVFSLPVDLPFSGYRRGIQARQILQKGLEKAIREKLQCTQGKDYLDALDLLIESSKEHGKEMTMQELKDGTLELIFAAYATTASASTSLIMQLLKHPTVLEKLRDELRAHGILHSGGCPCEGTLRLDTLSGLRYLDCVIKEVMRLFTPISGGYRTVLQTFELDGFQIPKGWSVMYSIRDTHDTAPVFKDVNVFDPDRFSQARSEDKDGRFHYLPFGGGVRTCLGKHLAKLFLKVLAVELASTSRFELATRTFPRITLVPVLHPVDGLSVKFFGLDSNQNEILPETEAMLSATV
As to the kind of experiment: Inhibition of CYP26B1-catalyzed tazarotenic acid sulfoxide formation. In kind it is biochemical.

For data set [4], the system named is CYP26A1, CYP26B1 or CYP2C8. Description: In vitro stability of candesartan cilexetil. In kind it is in vitro ADME. The settings on record: 1 μM, 5 nM CYP26A1, CYP26B1 or CYP2C8, NADPH, up to 10 minutes; data not shown.
Data set [5] deals with T3, CYP26B1. As to the kind of experiment: Spectral binding determination, CYP26B1. The settings on record: for Binding mechanism, CYP26B1: UV-difference spectra.
In data set [6] the test system is CYP2C8. Description: In vitro free fraction by rapid equilibrium dialysis. In kind it is in vitro ADME. The settings on record: human, pH 7.4, fu (IC50 assay), CYP2C8, conditions of CYP2C8 IC50 assay.
In data set [7] the target is T1, CYP26A1. Description: Spectral binding determination, CYP26A1.
Data set [8] addresses T2, CYP2C8. Description: Spectral binding determination, CYP2C8. The settings on record: UV-difference spectra.
Data set [9] relates to CYP26A1. The settings on record: in vitro; ref [97]; cited from earlier work.
For data set [10] the following is noted: following topical administration; ref [64]–[73]; cited from earlier work.
For data set [11] the following is noted: human, in vivo.
For data set [12] the following is noted: unbound fraction in plasma; ref [64]–[73]; cited from earlier work.
Setting [13] is: CYP26B1 IC50, tazarotenic acid, recombinant CYP26B1, probe tazarotenic acid sulfoxide formation, ± standard error.

Where two headings read alike, the source gives them in different places.

In the case of `CCOc1nc2cccc(C(=O)OC(C)OC(=O)OC3CCCCC3)c2n1Cc1ccc(-c2ccccc2-c2nnn[nH]2)cc1` (centres unmarked) [Candesartan Cilexetil], the IC50 was 410 ± 320 nM against CYP26A1 [1], 496 ± 190 nM at CYP2C8 [2] and 270 ± 60 nM on CYP26B1 [3] (setting [13]). In addition, the “Degradation of candesartan cilexetil” value in data set [4] is reported as “Minimal degradation”. In addition, the “Binding mechanism, CYP26B1” value at CYP26B1 [5] is recorded as “No binding spectra could be obtained”.
For the molecule `Clc1ccccc1C(c1ccccc1)(c1ccccc1)n1ccnc1` [Clotrimazole], the half-inhibitory concentration (IC50) on CYP26A1 [1] (CYP26A1 IC50, probe tazarotenic acid) came to 24.7 ± 8.1 nM; at CYP26A1 [1] (CYP26A1 IC50, tazarotenic acid, recombinant CYP26A1, probe tazarotenic acid sulfoxide formation, ± standard error), 20 ± 10 nM; on CYP26A1 [1] (IC50,unb CYP26A1, IC50 corrected for unbound fraction in the assay), 16.3 nM; at CYP26B1 [3] (CYP26B1 IC50, probe tazarotenic acid) it was 50.1 ± 12.1 nM; at CYP26B1 [3] (setting [13]), 50 ± 10 nM; on CYP26B1 [3] (IC50,unb CYP26B1, IC50 corrected for unbound fraction in the assay), 21.5 nM. The same molecule had a fraction unbound at 12 h, 1 μM in the data set on CYP2C8 [6] of 0.155 ± 0.024. Also, the Kd on CYP26A1 [7] (Ks (spectral binding constant), CYP26A1, 500 nM protein, ± standard error) came out at 533 ± 71.8 nM; on CYP26A1 [7] (Ks,unb CYP26A1, Ks corrected for nonspecific binding) it was 13.3 nM; at CYP26B1 [5] (Ks (spectral binding constant), CYP26B1, 500 nM protein, ± standard error), 4950 ± 640 nM; at CYP26B1 [5] (Ks,unb CYP26B1, Ks corrected for nonspecific binding), 24.7 nM. Also, on CYP26A1 [7] (UV-difference spectra), the “Binding mechanism, CYP26A1” value is given as “Type II”. Besides, the “Binding mechanism, CYP2C8” value at CYP2C8 [8] is recorded as “Type II”. Moreover, the “Inhibition of CYP26A1-catalyzed 4-hydroxyretinoic acid formation” value in the data set on CYP26A1 [9] is on record as “not be inhibitors”. For the same molecule, the Total skin concentration in data set [10] is 67.3 µM. In addition, the “Cmax,u (skin)” value in data set [11] amounted to 6.73 µM. The “fu,plasma” value in [12] is reported as 0.100. Besides, at CYP26B1 [5], the “Binding mechanism, CYP26B1” value is listed as “Type II”.

The record behind these values is publication PMC6628712 (Journal of enzyme inhibition and medicinal chemistry, 2016).
